The values that follow come from PubChem BioAssay AID296 (DTP/NCI, 2004).

The assay deals with MX-1 breast xenograft, nude mice, tumor weight T/C. Briefly: NCI In Vivo Anticancer Drug Screen. Data for tumor model Human Mammary Carcinoma MX-1 Xenograft (intrarenal inoculation) in NU/NU Swiss (nude) mice. Particulars: endpoint: mean tumor weight change, higher = larger tumour. The gist of the method: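 Tumor-bearing mice were treated with test compound alongside a vehicle-treated control group. Survival or tumor size was measured, and activity is expressed as the treated-group value divided by the control-group value.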
(In general: In xenograft studies the graft and the host belong to different species.)

The mark [1] stands for this setting: dose: 25.0 mg/kg/injection, schedule: Q01DX010 (sc), vehicle: saline with Tween-80.
Setting [2] is: dose: 100.0 mg/kg/injection, schedule: Q01DX010 (sc), vehicle: saline with Tween-80.
The mark [3] stands for this setting: dose: 200.0 mg/kg/injection, schedule: Q01DX010 (sc), vehicle: saline with Tween-80.
The mark [4] stands for this setting: dose: 400.0 mg/kg/injection, schedule: Q01DX010 (sc), vehicle: saline with Tween-80.
Where [5] appears, read: dose: 37.5 mg/kg/injection, schedule: Q04DX003 (sc), vehicle: saline with Tween-80.
[6] abbreviates: dose: 600.0 mg/kg/injection, schedule: Q04DX003 (sc), vehicle: saline with Tween-80.

Where “and” joins values, the source holds several entries; their conditions need not be identical. Equal values may be shown once. Results filed as inconclusive are left out.

For the molecule `COC1C(O)CC(OC2CC(OC3CC(O[C@@H]4C(=O)c5c(cc6cc(OC7CC(OC8CC(O)C(O)C(C)O8)C(O)C(C)O7)c(C)c(O)c6c5O)C[C@H]4[C@H](OC)C(=O)[C@@H](O)[C@@H](C)O)OC(C)C3O)OC(C)C2O)OC1C` (some centres undefined), the T/C is 99 % of control (dose: 0.18 mg/kg/injection, schedule: Q01DX010 (sc), vehicle: saline); 123 % of control (dose: 0.37 mg/kg/injection, schedule: Q04DX003 (sc), vehicle: saline); 90 % of control (dose: 0.75 mg/kg/injection, schedule: Q04DX003 (sc), vehicle: saline); 61 % of control (dose: 1.5 mg/kg/injection, schedule: Q04DX003 (sc), vehicle: saline); -93 % of control (dose: 3.0 mg/kg/injection, schedule: Q01DX010 (sc), vehicle: saline); 35 % of control (dose: 3.0 mg/kg/injection, schedule: Q04DX003 (sc), vehicle: saline).
`CCOC(=O)c1ccc(NC(=O)Nc2nccs2)cc1`: the T/C reads like this: under setting [1], 100 % of control; under setting [2], 97 % of control and 108 % of control; under setting [3], 63 % of control; under setting [4], 186 % of control.
Take `OCCN1CCN(CC/C=C2/c3ccccc3Sc3ccc(Cl)cc32)CC1`: the T/C reads like this: (dose: 12.5 mg/kg/injection, schedule: Q04DX003 (sc), vehicle: saline) 115 % of control; (dose: 25.0 mg/kg/injection, schedule: Q04DX003 (sc), vehicle: saline) 47 % of control; (dose: 50.0 mg/kg/injection, schedule: Q04DX003 (sc), vehicle: saline) 44 % of control and 51 % of control.
For `CN(Cc1cnc2nc(N)nc(N)c2n1)c1ccc(C(=O)N[C@@H](CCC(=O)O)C(=O)O)cc1`, the T/C runs as follows: (dose: 0.5 mg/kg/injection, schedule: Q01DX010 (sc), vehicle: sodium bicarbonate) 86 % of control; (dose: 1.0 mg/kg/injection, schedule: Q01DX010 (sc), vehicle: sodium bicarbonate) 175 % of control.
With `Nc1ccn(C2OC(CO)C(O)C2O)c(=O)n1` (centres undefined), the T/C is 53 % of control (dose: 7.5 mg/kg/injection, schedule: Q01DX010 (sc), vehicle: water); 62 % of control (dose: 7.81 mg/kg/injection, schedule: Q01DX010 (sc), vehicle: water); 27 % of control (dose: 15.0 mg/kg/injection, schedule: Q01DX010 (sc), vehicle: water); 28 % of control and 30 % of control (dose: 15.63 mg/kg/injection, schedule: Q01DX010 (sc), vehicle: water); 18 % of control (dose: 30.0 mg/kg/injection, schedule: Q01DX010 (sc), vehicle: water); 9 % of control and 12 % of control (dose: 31.25 mg/kg/injection, schedule: Q01DX010 (sc), vehicle: water). Further, the T/C by setting is: (dose: 60.0 mg/kg/injection, schedule: Q01DX010 (sc), vehicle: water) 9 % of control; (dose: 600.0 mg/kg/injection, schedule: Q04DX003 (sc), vehicle: water) 41 % of control.
With `c1ccc2sc(SSN3CC4CCC(CC4)C3)nc2c1`, the T/C is 156 % of control under setting [3] and 95 % of control under setting [4].
In the case of `CCCCCCCCCCCCCCCC(=O)OCC1OC(n2ccc(N)nc2=O)C(O)C1O` (centres undefined), the T/C runs as follows: under setting [5], 30 % of control; under setting [6], 11 % of control.
Consider `N=[N+]=CC(=O)OCC(N)C(=O)O` (centres undefined), for which the T/C (dose: 3.13 mg/kg/injection, schedule: Q01DX010 (sc), vehicle: saline) was -57 % of control and -53 % of control; the T/C (dose: 6.25 mg/kg/injection, schedule: Q01DX010 (sc), vehicle: saline) is -69 % of control and -54 % of control; the T/C (dose: 12.5 mg/kg/injection, schedule: Q01DX010 (sc), vehicle: saline) was -81 % of control and -71 % of control; the T/C (dose: 25.0 mg/kg/injection, schedule: Q01DX010 (sc), vehicle: saline) was -80 % of control.
Take `O=NN(CCCl)C(=O)NCCCl`: the T/C is 74 % of control (dose: 2.0 mg/kg/injection, schedule: Q01DX010 (sc), vehicle: saline); 76 % of control (dose: 4.0 mg/kg/injection, schedule: Q01DX010 (sc), vehicle: saline); 80 % of control (dose: 4.0 mg/kg/injection, schedule: Q01DX010 (sc), vehicle: suspension in saline); 80 % of control (dose: 7.5 mg/kg/injection, schedule: Q04DX003 (sc), vehicle: suspension in saline); 56 % of control (dose: 8.0 mg/kg/injection, schedule: Q01DX010 (sc), vehicle: saline); 44 % of control (dose: 8.0 mg/kg/injection, schedule: Q01DX010 (sc), vehicle: suspension in saline). Further, the T/C reads like this: (dose: 15.0 mg/kg/injection, schedule: Q04DX003 (sc), vehicle: suspension in saline) 37 % of control and 52 % of control; (dose: 16.0 mg/kg/injection, schedule: Q01DX010 (sc), vehicle: suspension in saline) 2 % of control; (dose: 32.0 mg/kg/injection, schedule: Q01DX010 (sc), vehicle: saline) 2 % of control.
Turning to `Cc1cc(NCCCCCCNc2cc(C)nc3cc(N(C)C)ccc23)c2ccc(N(C)C)cc2n1`, the T/C runs as follows: (dose: 37.5 mg/kg/injection, schedule: Q04DX003 (sc), vehicle: distilled water + Tween-80 + alcohol) 34 % of control; (dose: 75.0 mg/kg/injection, schedule: Q04DX003 (sc), vehicle: distilled water + Tween-80 + alcohol) 49 % of control; (dose: 150.0 mg/kg/injection, schedule: Q04DX003 (sc), vehicle: distilled water + Tween-80 + alcohol) 49 % of control; (dose: 300.0 mg/kg/injection, schedule: Q04DX003 (sc), vehicle: distilled water + Tween-80 + alcohol) 30 % of control.
Consider `COC(=O)C(F)C(Br)C(=O)OC` (centres undefined), for which the T/C is, setting by setting: (dose: 18.75 mg/kg/injection, schedule: Q04DX003 (sc), vehicle: saline with Tween-80) 52 % of control; under setting [5], 49 % of control; (dose: 75.0 mg/kg/injection, schedule: Q04DX003 (sc), vehicle: saline with Tween-80) 59 % of control.
With `O=Cc1ccc([N+](=O)[O-])s1`, the T/C runs as follows: under setting [1], 90 % of control; (dose: 50.0 mg/kg/injection, schedule: Q01DX010 (sc), vehicle: saline with Tween-80) 89 % of control; under setting [2], 56 % of control.
Turning to `CCCCN(CCCC)C(Cl)=Nc1ccccc1`, the T/C was 89 % of control (dose: 800.0 mg/kg/injection, schedule: Q04DX003 (sc), vehicle: other) and 124 % of control (dose: 1600.0 mg/kg/injection, schedule: Q04DX003 (sc), vehicle: other).
As for `O=C[C@@H](CO)O[C@H](C=O)c1c[nH]c(=O)[nH]c1=O`, the T/C is 91 % of control (dose: 18.75 mg/kg/injection, schedule: Q04DX003 (ip), vehicle: saline); 59 % of control (dose: 37.5 mg/kg/injection, schedule: Q04DX003 (ip), vehicle: saline); 35 % of control (dose: 75.0 mg/kg/injection, schedule: Q04DX003 (ip), vehicle: saline).
In the case of `N=C(N)SCc1cccc2c(=O)cc(-c3ccccc3)oc12`, the T/C (dose: 300.0 mg/kg/injection, schedule: Q04DX003 (sc), vehicle: suspension in saline) was 110 % of control.
`COC(=O)C(N)Cc1ccc(O)c(O)c1` (centres undefined): the T/C (dose: 300.0 mg/kg/injection, schedule: Q04DX003 (sc), vehicle: saline) is 106 % of control; the T/C (dose: 600.0 mg/kg/injection, schedule: Q04DX003 (sc), vehicle: saline) was 101 % of control; the T/C (dose: 1200.0 mg/kg/injection, schedule: Q04DX003 (sc), vehicle: saline) was 105 % of control.
For `S=c1[nH]cc2cnccn12`, the T/C is 104 % of control (dose: 300.0 mg/kg/injection, schedule: Q04DX003 (sc), vehicle: saline with Tween-80); 97 % of control under setting [6]; 106 % of control (dose: 1200.0 mg/kg/injection, schedule: Q04DX003 (sc), vehicle: saline with Tween-80).
On to `O=S(=O)(c1ccccc1)N1CN2CCN(C2)C1`, for which the T/C reads like this: (dose: 200.0 mg/kg/injection, schedule: Q04DX003 (sc), vehicle: saline with Tween-80) 58 % of control; (dose: 400.0 mg/kg/injection, schedule: Q04DX003 (sc), vehicle: saline with Tween-80) 81 % of control; (dose: 800.0 mg/kg/injection, schedule: Q04DX003 (sc), vehicle: saline with Tween-80) 65 % of control; (dose: 1600.0 mg/kg/injection, schedule: Q04DX003 (sc), vehicle: saline with Tween-80) 48 % of control.
In the case of `Ic1ncnc2c1ncn2C1CCCO1` (centres undefined), the T/C by setting is: (dose: 50.0 mg/kg/injection, schedule: Q04DX003 (sc), vehicle: Klucel (hydroxypropylcellulose) (HPC)) 84 % of control; (dose: 200.0 mg/kg/injection, schedule: Q04DX003 (sc), vehicle: Klucel (hydroxypropylcellulose) (HPC)) 97 % of control; (dose: 400.0 mg/kg/injection, schedule: Q04DX003 (sc), vehicle: Klucel (hydroxypropylcellulose) (HPC)) 123 % of control.
